Reference: patent US20180271097A1, “HETEROCYCLIC TRIFLUOROALKENYL COMPOUNDS HAVING A NEMATOCIDAL ACTIVITY, THEIR AGRONOMIC COMPOSITIONS AND USE THEREOF” (ISAGRO S.P.A., priority 2015, published 2018)

Tests used:
Meloidogyne spp. [1] = test: Nematocidal activity against Meloidogyne spp., application 7 days before transplantation (tomato in pots); assay type: in vivo; settings: tomatoes, 4,000 g/hectare, treatment 7 days before transplantation; for Root development: 60 days after transplantation, 100% = development of comparative healthy root; for Height of plant (cm) / Gall index (scale 0-10): assessment 60 days after transplantation; for Gall index (scale 0-10): Bridge and Page scale, 0 = 0% affected root, 10 = 100% infested root
Procedure: Determination of the Nematocidal Activity Against Meloidogyne Spp. (Application 7 Days Before Transplantation)
(§1) The tests, aimed at testing the nematocidal activity of the product under consideration, were carried out using inocula taken from a breeding of Meloidogyne spp. maintained on tomato and tobacco plants in pots and grown in a greenhouse.
(§2) In order to perform the experiments, portions of roots having a large number of galls, and ground, in which larvae are present, starting from the second stage of age, were collected from the infested pots.
(§3) New pots having a diameter of 15 cm were half-filled with sterile earth. The portions of infested roots, previously cleaned, were positioned on the same in order to correctly evaluate the degree of infestation and ensure that each pot contained the same nematic charge. 200-300 g of infested earth were then added and subsequently covered with a thin layer of sterile earth.
(§4) The treatment was effected by pouring, onto the surface of the ground, 100 ml of solution in which the product to be tested was dissolved.
(§5) Tomato seedlings at a stage of two-three true leaves were transplanted into the pots thus prepared. Different tomato cultivars were adopted, having a different sensitivity to the parasite and with different growth rates. In particular, an ornamental variety (cv Microtom) was used for evaluating the final production, whose seedlings have reduced dimensions and are capable of reaching maturity of the fruit in pots and under greenhouse conditions, in about two months.
The evaluation of the product under consideration was effected by treating the pots 7 days before transplantation (according to what is indicated in the label of the commercial reference product NIMITZ® (Fluensulfone)).
The product was evaluated considering the possible phytotoxic effects that can jeopardize the development of the plant (a zero-ten scale was used wherein: zero=no symptoms, 10=plant destroyed) and the effectiveness with respect to nematodes.
(§6) The capacity of limiting the parasite was detected, at a distance of 30 and 60 days after transplanting, considering the development of the root system (wherein 100% is the development reached by the comparative healthy root) and the presence of galls on the roots. The presence of galls in the roots was estimated using the infestation scale proposed by Bridge and Page, in which the value zero corresponds to 0% of affected root and the value of 10 corresponds to 100% of infested root.
Table 2 indicates the results relating to the effectiveness of Compounds 1, 2 and 22 and Compounds CR1, CR2, CR3 on tomatoes at a dosage of 4,000 g/hectare, effecting the assessment 60 days after the transplantation.

Meloidogyne spp. [2] = test: Nematocidal activity against Meloidogyne spp., application with already cultivating crop (tomato in pots); assay type: in vivo; settings: tomatoes, 4,000 g/hectare, repeated treatment after transplantation (already cultivating crop); for Root development: 60 days after transplantation, 100% = healthy root; for Gall index (scale 0-10) / Weight of plant: survey 60 days after transplantation
Procedure: as §1, §2, §3, §4, §5, §6
Determination of the Nematocidal Activity Against Meloidogyne Spp. (Application with Already Cultivating Crop)
The same experimental procedure as Example 4 was adopted for evaluating the nematocidal activity of the products under examination, except for the fact that this evaluation was effected by applying the product during the development of the seedlings (according to what is indicated in the label of the commercial reference product VYDATE® (Oxamil)).
Table 5 indicates the results relating to the effectiveness of compounds 1, 2, 6 and the compound CR1 on tomatoes at a dose of 4,000 g/hectare effecting the survey 60 days after transplantation.

tomatoes = test: Phytotoxicity on tomatoes, application with already cultivating crop; assay type: in vivo, tomato; settings: zero = no symptoms, 10 = plant destroyed
Procedure: The product was evaluated considering the possible phytotoxic effects that can jeopardize the development of the plant (a zero-ten scale was used wherein: zero=no symptoms, 10=plant destroyed) and the effectiveness with respect to nematodes. Table 6 indicates the results relating to phytotoxicity on tomatoes applying compounds 1, 2, 6, 9, 71, 75, 76 and CR1 with already cultivating crop: […]

Meloidogyne spp. [3] = test: Nematocidal activity against Meloidogyne spp., application at the moment of transplantation (tomato in pots); assay type: in vivo; settings: tomatoes, 4,000 g/hectare, 1 treatment at the moment of transplantation; for Root development: 60 days after transplantation, 100% = healthy root; for Gall index (scale 0-10) / Weight of plant: survey 60 days after transplantation
Procedure: as §1, §2, §3, §4, §5, §6
Determination of the Nematocidal Activity Against Meloidogyne Spp. (Application at the Moment of Transplantation)
The same experimental procedure as Example 4 was adopted for evaluating the nematocidal activity of the products under examination, except for the fact that this evaluation was effected by applying the product at the moment of transplantation.
Tables 3 and 4 indicate the results relating to the effectiveness of compounds 9, 10, 71, 75, 76 and the reference compound CR1 on tomatoes at a dose of 4,000 g/hectare effecting the survey 60 days after transplantation.

SMILES	Root development (Meloidogyne spp. [1]) [%]	Height of plant (cm) (Meloidogyne spp. [1])	Gall index (scale 0-10) (Meloidogyne spp. [1])	Root development (Meloidogyne spp. [2]) [%]	Gall index (scale 0-10) (Meloidogyne spp. [2])	Weight of plant (Meloidogyne spp. [2]) [g]	Phytotoxicity (scale 0-10) (tomatoes)	Root development (Meloidogyne spp. [3]; Table 3 test) [%]	Gall index (scale 0-10) (Meloidogyne spp. [3]; Table 3 test)	Weight of plant (Meloidogyne spp. [3]; Table 3 test) [g]	Root development (Meloidogyne spp. [3]; Table 4 test) [%]	Gall index (scale 0-10) (Meloidogyne spp. [3]; Table 4 test)	Weight of plant (Meloidogyne spp. [3]; Table 4 test) [g]
O=S(=O)(CCC(F)=C(F)F)c1ncc(Cl)s1 [CR1, 5-chloro-2-(3,4,4-trifluoro-3-butenylsulfonyl)-thiazole, reference compound]	70	71	2.0	32	1.5	25	3	60	1.5	62	80	1.0	50
Cc1nnc(SCCC(F)=C(F)F)s1 [CR2, 2-(3,4,4-trifluoro-3-butenylthio)-5-methyl-1,3,4-thiadiazole, reference compound]	70	60	2.0										
Cc1nnc(S(=O)(=O)CCC=C(F)F)s1 [CR3, 2-(4,4-difluoro-3-butenylsulfonyl)-5-methyl-1,3,4-thiadiazole, reference compound]	75	70	1.5										
Cc1nnc([S+]([O-])CCC(F)=C(F)F)s1 (stereo not shown) [Nr 1, 2-(3,4,4-trifluoro-3-butenylsulfinyl)-5-methyl-1,3,4-thiadiazole]	95	75	1.0	100	1.0	36	0						
Cc1nnc(S(=O)(=O)CCC(F)=C(F)F)s1 [Nr 2, 2-(3,4,4-trifluoro-3-butenylsulfonyl)-5-methyl-1,3,4-thiadiazole]	95	76	1.0	100	0.0	33	0						
CC(C)c1nnc(S(=O)(=O)CCC(F)=C(F)F)s1 [Nr 6]				95	2.0	40	0						
CC(C)Cc1nnc([S+]([O-])CCC(F)=C(F)F)s1 (stereo not shown) [Nr 9]							0	70	2.0	116			
CC(C)Cc1nnc(S(=O)(=O)CCC(F)=C(F)F)s1 [Nr 10]								75	2.0	88			
O=S(=O)(CCC(F)=C(F)F)c1nnc(Cl)s1 [Nr 22, 2-(3,4,4-trifluoro-3-butenylsulfonyl)-5-chloro-1,3,4-thiadiazole]	90	73	1.5										
CC1(C)CC([S+]([O-])CCC(F)=C(F)F)=NO1 (stereo not shown) [Nr 75]							0				100	1.0	50
CC1(C)CC(S(=O)(=O)CCC(F)=C(F)F)=NO1 [Nr 76]							0				100	1.5	51
